From patent US8895032B2, “Dendritic nano-antioxidants” (Central Michigan University, priority 2009, dated 2014)
“And” between values parts separate entries of the source, which are not always exact repeats. Identical values can stand only once.

Experiments:
[1] = beta-carotene-linoleate assay; format: biochemical; conditions: for % A470 nm: 12 μM, after 180 min incubation at 50° C.; for protection of linoleic acid from oxidation: 50° C., 180 min, 470 nm
Text: The ability of the dendritic antioxidants 1, 2, and 3 to protect linoleic acid against free radical damage was examined by the beta-carotene-linoleate model (Jayaprakasha, G. K., et al. Food Chem. 2001, 73, 285, incorporated herein by reference in its entirety). In the absence of an antioxidant, hydroperoxides formed from linoleic acid oxidation bleach the highly unsaturated beta-carotene by a free-radical-mediated phenomenon. The bleaching of the reddish-orange color of beta-carotene was monitored at 470 nm in the presence of various concentrations of antioxidant. The % absorbance (corrected for control without antioxidant) was determined at each antioxidant concentration after incubation at 50° C. for 180 min. The % A470 nm values were determined as follows: % A470 nm=[(At(180 min)/At(0 min))×100]−[(Ac(180 min)/Ac(0 min))×100], wherein At(180 min)=absorbance at 470 nm of antioxidant sample incubated at 50° C. for 180 min, At(0 min)=absorbance at 470 nm of antioxidant sample incubated at 50° C. for 0 min, Ac(180 min)=absorbance at 470 nm of control sample (without antioxidant) incubated at 50° C. for 180 min, and Ac(0 min)=absorbance at 470 nm of control sample (without antioxidant) incubated at 50° C. for 0 min. […] In FIG. 24, protection of linoleic acid from oxidation by various antioxidants is shown for compound 1 (□), compounds 2 and 3 (•), quercetin (x), and Trolox (Δ).

DPPH radical assay = test: DPPH radical assay
Experimental: The DPPH assay was one of three electron transfer (ET) assays used to determine the antioxidant potential of compound 1 (described in Example 6) in comparison to its monomeric counterpart (syringaldehyde) as well as popular antioxidants. In an ET assay, an antioxidant donates electron(s) to a molecular probe, thus reducing it. From the assay, thermodynamic conversion of antioxidant to antioxidant radical (oxidation) is measured during a fixed time period.
The reduction of DPPH radical was determined for ascorbic acid, Trolox, syringaldehyde, and the compound 1 described in Example 6 as previously reported (Brand-Williams, et al. Lebensm.-Wiss U.-Technol. 1995, 28, 25-30, incorporated herein by reference in its entirety). In the DPPH assay, DPPH• radical was reduced by the antioxidant in methanol (Brand-Williams, et al. Lebensm.-Wiss U.-Technol. 1995, 28, 25-30, incorporated herein by reference in its entirety). […] The DPPH reagent was made in methanol. Antioxidant sample (10 μL) was added to 1.0 mL of reagent and the absorbance was monitored at 515 nm until a plateau was reached. Antioxidant concentrations were 50 μM syringaldehyde, 12.5 μM Trolox and ascorbic acid, and 5 μM compound 1. All samples were made in methanol and run in triplicates at room temperature.
The DPPH• scavenging capacity of each antioxidant was evaluated from the plot of the percentage DPPH• remaining when the kinetics reached a steady state as a function of the molar ratios of antioxidant to DPPH•. […] Using the curve, EC50 (the amount of antioxidant necessary to decrease the initial DPPH• concentration by 50%), antiradical power (1/EC50, ability to reduce the DPPH•), reaction stoichiometry (EC50×2, the concentration of antioxidant required to reduce 100% of DPPH• radical), and the number of reduced DPPH• per antioxidant molecule (1/stoichiometry) for each antioxidant were calculated as previously described (Brand-Williams, et al. Lebensm.-Wiss U.-Technol. 1995, 28, 25-30, incorporated herein by reference in its entirety) and are depicted in Table 1.
Antioxidant capacity of the compounds was assessed by the DPPH assay (Brand-Williams, et al. Lebensm. Wiss. Technol. 1995, 28, 25, incorporated herein by reference in its entirety). […] In FIG. 22, control with methanol is (X, dashed); compound 1 is (□), compound 2 is (•), compound 3 is (◯), and Trolox (Δ). All antioxidant concentrations were 5 μM.
The free-radical scavenging ability of the antioxidants was evaluated by the DPPH assay, as described above in Example 7.

plasmid DNA pBR 322 = test: Protection of plasmid DNA from AAPH damage (agarose electrophoresis); format: biochemical; conditions: 10 mM AAPH, 37° C., 4 h
Experimental: The effectiveness of the three compounds to protect DNA from AAPH damage was also determined. The plasmid DNA pBR 322 was incubated with AAPH (final concentration 10 mM) at 37° C. for 4 h with or without antioxidants (final concentrations, 0.35-45 μM), after which the samples were subjected to agarose electrophoresis (Sakihama, Y., et al. Toxicology 2002, 177, 67, incorporated herein by reference in its entirety). […] In the absence of AAPH, pBR 322 was mostly in its supercoiled (S) form (small amount of open circular, O, form was also visible, lane 1 FIG. 25). After reaction with AAPH, the DNA was transformed almost entirely into its open circular form (lane 2, FIG. 25). […] No protection was obtained for both compound 1 and quercetin below 5 μM (lanes 7-10, FIG. 25). […] Compound 3 as well as Trolox were ineffective at all concentrations used in the experiment (0.35-45 μM).
Protection of DNA from free radical damage by the antioxidant dendrimers (compounds 4, 5, and 1) was also evaluated. Plasmid DNA (pBR 322) samples, were incubated with AAPH (final concentration 10 mM) at 37° C. for 4 h with antioxidants (final concentrations, 0.35-45 μM) and subjected to agarose electrophoresis. […] The native DNA was mostly in its supercoiled (S) form (small amount of open circular, O, form was also visible, lane 1, FIG. 31). In the presence of AAPH, the DNA was transformed almost entirely into its O form (lane 2, FIG. 31). […] Negligible DNA protection was afforded by all three dendrimers at ≦2.5 μM (lanes 7-10, FIG. 31). Under similar conditions, Trolox as well as the starting materials for dendrimer synthesis were ineffective at all concentrations.

Human LDL = test: Protection of LDL from AAPH oxidation (agarose gel electrophoresis); format: biochemical; conditions: 10 mM AAPH, 18 h, 37° C.
Text: The antioxidant activity of compounds 1, 2, and 3 towards biomolecules was examined by studying their ability to protect LDL, fatty acid, and DNA from free radicals. For LDL, AAPH was used to induce free radical damage. AAPH was used instead of copper (Cu^2) ion for LDL oxidation so that the free radical scavenging activity of the antioxidants could be measured without any pro-oxidant interference caused by metal ions (Salah, N. et al. Arch. Biochem. Biophys. 1995, 322, 339, incorporated herein by reference in its entirety). All solutions were made in ultra-pure water.
Protection of LDL from AAPH free radicals by the antioxidant decreased the anodic shift in a dose-dependent manner (FIG. 23). […] The increased hydrophobicity of compound 3 may be partly responsible for its improved LDL protection over compound 2.
The antioxidant activity of the antioxidants towards biomolecules was examined by studying their ability to protect LDL, lysozyme, and DNA from free radicals. For LDL, AAPH was used to induce free radical damage. AAPH was used instead of Cu^2+ for LDL oxidation so that the free radical scavenging activity of the antioxidants could be measured without any pro-oxidant interference caused by metal ions. The oxidation of human low-density lipoprotein was used as a model for evaluating the ability of the G1 dendrimers as chain-breaking antioxidants for lipid. Oxidation of LDL leads to changes in both the lipid and the protein moieties of the lipoprotein particle. Lipid peroxidation in LDL has been evaluated by a variety of methods. Due to the complexity of events that occur in lipoprotein oxidation, the electrophoretic migration pattern of oxidized LDL is one of the best methods to evaluate the extent of lipoprotein oxidation. LDL was incubated with 20 mM AAPH and increasing concentrations of the G1 dendrimers (0-37 μM in PBS) for 21 h at 37° C. The mixture was then subjected to agarose gel electrophoresis using the Ciba Corning Clinical Electrophoresis System. The agarose gel was stained with Fat Red 7B. In FIG. 30A (top), lane 1 is native LDL, and lanes 2-8 are AAPH-oxidized LDL with 0, 37, 18.5, 9, 4.5, 2 and 1 μM compound 4, respectively. In FIG. 30B (bottom), lane 1 is native LDL, and lanes 2-8 are AAPH-oxidized LDL with 0, 37, 18.5, 9, 4.5, 2 and 1 μM quercetin or Trolox, respectively.

[2] = FRAP assay (reduction of Fe(III) to Fe(II)); format: biochemical; design: Slope of ΔA593 versus concentration: unit not given here; conditions: for Slope of ΔA593 versus concentration: 37° C.
Experimental: The FRAP assay was performed as previously described (Pulido, et al. J. Agric. Food Chem. 2000, 48, 3396-3402, incorporated herein by reference in its entirety). In the FRAP assay, ferric was reduced by the antioxidant to ferrous via electron transfer (Benzie et al., Anal. Biochem. 1996, 239, 70-76, incorporated herein by reference in its entirety). This assay measured the redox potential of an antioxidant which is used as an estimate of antioxidant efficiency and expressed as a FRAP value. […] The compound 1 as well as the other antioxidants was dissolved in methanol. […] Reaction kinetics of the compound 1 and other antioxidants were obtained by plotting the change in slopes at various times and are shown in FIG. 18. […] This time-dependent increase in absorbance was previously reported (Pulido, et al. J. Agric. Food Chem. 2000, 48, 3396-3402, incorporated herein by reference in its entirety) and was especially significant with polyphenolic compounds. […] However, the FRAP value increased with time, reaching 2.5 in 60 min. […] J. Agric. Food Chem. 2000, 48, 3396-3402, incorporated herein by reference in its entirety). […] EC1 values, and therefore ferric reducing ability, were lower at longer reaction times as expected from the kinetic behavior of the antioxidants (Pulido, et al. J. Agric. Food Chem. 2000, 48, 3396-3402, incorporated herein by reference in its entirety).

[3] = ABTS radical cation decolorization assay; format: biochemical
Text: We have tested AO activity of G1 (13) using ABTS as a radical source using a previously reported spectroscopic assay. The AO activity of the G1 (13) was compared to those of syringaldehyde, gallic acid, and vitamin C. If the phenolic OH group is the radical scavenging site, the expected AO activity of the G1 (13) should be 4 fold higher than that of syringaldehyde and 1.3 fold higher than that of gallic acid (which has three phenolic OH groups).
ABTS radical cation decolorization assay was used as previously described (Ozgen, et al. J. Agric. Food Chem. 2006, 54, 1151-1157, incorporated herein by reference in its entirety). Like the DPPH assay, this was also a decolorization assay and measured absorbance decrease at 734 nm as the ABTS radical (ABTS•+) is quenched by the antioxidant. The solvent used for the assay was ethanol. ABTS reagent was added to 1.0 mL solvent in a cuvet to bring the absorbance to 0.7. A 10 μL sample of antioxidant was then added, mixed, and the absorbance monitored at 734 nm for 6 min. Antioxidant concentrations were 14.4 μM Trolox, 11.4 μM ascorbic acid, 15.4 μM syringaldehyde, and 3 μM compound 1. The % decrease in absorbance at 6 min was plotted against antioxidant concentrations. The gradient of the line obtained by linear regression for a given antioxidant was divided by that obtained for Trolox to yield Trolox equivalent antioxidant (TEAC) values. All samples were made in ethanol and run in triplicates and at room temperature.

NCc1ccc(CN)cc1 [4-aminomethylbenzylamine]
% A470 nm [1]: 16% | quenching of DDPH• (DPPH radical assay; 40 μM final concentration in cuvet): 6%

COc1cc(CN(Cc2ccc(CN(Cc3ccc(O)c(OC)c3)Cc3ccc(O)c(OC)c3)cc2)Cc2ccc(O)c(OC)c2)ccc1O [Compound 2]
protection of linoleic acid from oxidation [1]: about twice weaker than compound 1 | concentration at which some DNA protection was observed (plasmid DNA pBR 322): ≥ 45 µM

COc1cc(CN(Cc2ccc(CN(Cc3cc(I)c(O)c(OC)c3)Cc3cc(I)c(O)c(OC)c3)cc2)Cc2cc(I)c(O)c(OC)c2)cc(I)c1O [Compound 3]
protection of linoleic acid from oxidation [1]: about twice weaker than compound 1 | protection of LDL from AAPH free radicals (anodic migration) (Human LDL): better LDL protection than compound 2 | DNA protection at all concentrations used (plasmid DNA pBR 322; 0.35-45 μM): ineffective

COc1cc(C=O)cc(OC)c1O [Syringaldehyde]
Antioxidant Capacity Relative to Trolox, FRAP 5 min ([2]; 5 min): 2.3 | EC1 (concentration with ferric-TPTZ reducing ability equivalent to 1 mM FeSO4.7H2O) ([2]; 5 min): 194 µM | FRAP value relative to Fe(II) ([2]; 5 min): 5.1 | FRAP value relative to Fe(II) ([2]; 15 min): 6.7 | FRAP value relative to Fe(II) ([2]; 30 min): 8.4 | Antioxidant Capacity Relative to Trolox, FRAP 60 min ([2]; 60 min): 4 and 4.2 | EC1 (concentration with ferric-TPTZ reducing ability equivalent to 1 mM FeSO4.7H2O) ([2]; 60 min): 108 µM | FRAP value relative to Fe(II) ([2]; 60 min): 9.2 | Slope of ΔA593 versus concentration ([2]; Reaction time 5 min): 0.062 | Slope of ΔA593 versus concentration ([2]; Reaction time 15 min): 0.081 | Slope of ΔA593 versus concentration ([2]; Reaction time 30 min): 0.101 | Slope of ΔA593 versus concentration ([2]; Reaction time 60 min): 0.111 | % A470 nm [1]: 12% | Antioxidant Capacity Relative to Trolox, ABTS [3]: 0.98 | IC50 ([3]; final concentration in the cuvet, read-out: concentration at which 50% inhibition of ABTS•+ was observed): ~11 µM | Slope of % decrease in absorbance at 6 min versus antioxidant concentration ([3]; linear regression, concentration in μM): 3.9 | TEAC ([3]; slope divided by that of Trolox, % decrease in A734 at 6 min, ethanol): 0.98 | # of DDPH• reduced per antioxidant molecule (1/stoichiometry) (DPPH radical assay): 0.33 | Antioxidant Capacity Relative to Trolox, DPPH (DPPH radical assay): 0.18 | DPPH assay, times weaker than Trolox (DPPH radical assay): 5.6 times | DPPH• remaining in one minute (DPPH radical assay; 50 μM syringaldehyde): 96% | time to reach plateau / steady state with DPPH• (DPPH radical assay; 50 μM syringaldehyde, 12.5 μM Trolox and ascorbic acid, 5 μM compound 1, methanol, room temperature, 515 nm): approximately 45 min
